Test results published in patent publication US6365414B1, “Vitro system for determining formation of Aβ amyloid” (The General Hospital Corporation, priority 1994, dated 2002).
Like-named read-outs stand apart in the source and are kept apart here.

Key:
[1] = ^65Zn^2+ dot-blot binding to immobilized Aβ peptides (Scatchard / competition); conditions: for zinc binding (in words): dot-blot or blot of tryptic digest, ^65Zn^2+
Method: ^65Zn^2+ Binding Studies—Dissolved peptides (1.2 nMol, unless otherwise stated) were dot-blotted onto 0.2-μm polyvinylidene difluoride membrane (Pierce Chemical Co.), washed twice with chelating buffer (200 μl×100 mM NaCl, 20 mM Tris-HCl, 1 mM EDTA, pH 7.4), then five times with blocking buffer (200 μl×100 mM NaCl, 20 mM Tris-HCl, 1 mM MnCl2, pH 7.4), and then incubated (60 min, 20° C.) with ^65Zn (unless otherwise stated 130,000 cpm, […] ^65ZnCl2 in 200 μl of blocking buffer±competing metal ion chloride). The dot-blot was then washed with blocking buffer (5×200 μl), the dot excised, placed in a test tube, and assayed by γ-counting (11% efficiency). The equilibration volume for stoichiometry estimates was regarded as 6×200 μl. The 214 nm UV absorbance of the unbound flow-through was assayed to determine the total amount of peptide remaining bound onto the membrane. […] To alter the pH, the ^65Zn incubation was carried out in the presence of 100 mM buffer: MOPS (pH 6.5-7.0), MES (pH 5.0-6.0), acetate (pH 3.5-4.5). The dot-blot apparatus was washed with detergent and EDTA (50 mM) then rinsed and siliconized between use.
Aliquots of Aβ were incubated (60 min) with ^65Zn^2+ in the presence of varying concentrations of unlabeled Zn^2+ (0.01-50 μM total). Values shown are means±S.D., n≧3. […] (FIG. 1b) depicts specificity of the Zn^2+ binding site for various metals. Aβ was incubated (60 min) with ^65Zn^2+ (157 nM, 138,000 cpm) and competing unlabeled metal ions (50 μM total). […] Percent binding of total counts ^65Zn^2+/min added is corrected for the amounts (in nanomoles) of peptides adhering to the membrane. (FIG. 1d) depicts as for 1a, with Aβ1-28 peptide substituting for Aβ1-40. 157 nM ^65Zn (138,000 cpm) is used in this experiment to probe immobilized peptide (1.6 nmol). (FIG. 1e) depicts pH dependence of […] binding to Aβ1-40.

Aβ [2] = biological target: T1, Aβ (Homo sapiens, UniProt P05067); test: G50 gel filtration chromatography of Aβ with metal ions or EDTA; conditions: for effect on Aβ recoverable by chromatography (in words) / less total peptide eluted compared with EDTA profile: metal 25 μM
T1 construct: purchased Bachem; Sigma (also synthesized by the W. M. Keck Foundation laboratory, Yale); host or cells: chemical synthesis
T1 sequence (P05067 672-711 limits assumed): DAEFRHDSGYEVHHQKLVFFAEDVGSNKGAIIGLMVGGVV
Method: Aβ was stored in aliquots of 0.52 mg/ml in water at −20° C., then kept at 4° C. when thawed. Reagents were mixed without vortex mixing. The incubated Aβ was directly applied to a G50 SF (Pharmacia, Uppsala, Sweden) column (Bio-Rad Econo-Column, 30×0.7 cm) pre-equilibrated with metal salt solution or EDTA (50 μM) in TBS at 20° C. and eluted at 8 ml/h (Wiz peristaltic pump, Isco, Lincoln, Nebr.). Absorbance was measured at 254 and 214 nm (Type 6 optical unit, Isco). The amount of Aβ eluting at various peaks was estimated from the area under the curve. […] Because the sample eluted in a volume of approximately 15 ml, the average concentration of the peptide on the column was 0.8 μM.
To study the effects of protein blocking upon adsorption of Aβ to the chromatography column, a Sephadex G50 SF column which had been characterized previously for Aβ behavior was eluted with 3% bovine serum albumin (BSA) in TBS (50 ml) and equilibrated with non-BSA-containing buffer, subsequent to repeating the Aβ experiments.
The elution points of molecular mass standards and relative assignments of Aβ peak elutions are indicated. Mass standards were blue dextran (2×10^6 kDa, V0=void volume), BSA (66 kDa), carbonic anhydrase (29 kDa), cytochrome c (12.4 kDa), and aprotinin (6.5 kDa). The mass of Aβ is 4.3 kDa. […] Data for experiments performed in the presence of copper were taken from 214 nm readings and corrected for comparison.

[3] = Aβ binding to kaolin (aluminum silicate); format: physicochemical; conditions: metal 25 μM
Method: Aβ Binding to Kaolin (Aluminum Silicate)—Kaolin suspension was prepared in high performance liquid chromatography water (Fisher), defined, and adjusted to 50% (v/v). Aβ (40 μg) was incubated in siliconized reaction vessels with either kaolin or Sephadex G50 SF (10 μl×50% (v/v)) in Cu^2+, Zn^2+, or EDTA (100 μl in TBS, 5 min, room temperature). The suspension was then pelleted (1500×g, 3 min) and the supernatant removed and diluted 20-fold with water to bring the UV absorbance readings into the linear range. Samples were assayed at 214 nm before and after incubation with kaolin or Sephadex.
(FIG. 3a) depicts concentration (by 214 nm absorbance) of Aβ remaining in supernatant after incubation with 10 mg of G50 Sephadex. (FIG. 3b) depicts concentration (by 214 nm absorbance) of Aβ remaining in supernatant after incubation with 10 mg of kaolin, expressed as percent of the starting absorbance.

Aβ [4] = biological target: T1, Aβ; test: SDS Tris/Tricine gel electrophoresis of Aβ incubated with Zn^2+; conditions: Zn^2+ 200 μM, 1-24 h, 20° C.
Method: To further test whether zinc induces irreversible precipitation of Aβ in the absence of kaolin, Aβ incubated with Zn^2+ (200 μM, 1-24 h, 20° C.) was subjected to SDS Tris/Tricine gel electrophoresis.

Aβ1-40 = biological target: T2, Aβ1-40 (Homo sapiens, UniProt P05067); test: Tryptic digestion of Aβ1-40 after incubation with Zn^2+; format: biochemical
T2 construct: Aβ1-40 (13.9 μg) was incubated with; purchased Bachem; Sigma (also synthesized by the W. M. Keck Foundation laboratory, Yale); host or cells: chemical synthesis
T2 sequence (P05067 672-711 limits assumed): as above
Method: Tryptic Digestion of Aβ-Aβ1-40 (13.9 μg) was incubated with Zn^2+ (12 μl in blocking buffer, 1 h, 37° C.) and then digested with trypsin (12 ng, 3 h, 37° C.). The reaction was stopped by adding SDS sample buffer containing phenylmethylsulfonyl fluoride (1 mM), boiling the samples (5 min), and applying the samples to Tris/Tricine gel electrophoresis and transfer. The blot was washed with EDTA, Coomassie-stained, incubated with ^65Zn^2+, individual bands were excised, assayed for ^65Zn^2+ binding, and N-terminal sequenced to confirm the identity of the digestion products.
The blot in 4a was incubated with ^65Zn^2+, the visible bands excised, and the bound counts for each band determined.

trypsin = test: Trypsin activity, Z-Arg-amido-4-methylcoumarin cleavage; format: biochemical
[5] = human, in vivo
[6] = neutral pH; cited from earlier work
[7] = Size estimation of Aβ aggregates with filters of various pore sizes, ^65Zn tracer, EDTA wash; format: physicochemical
Method: FIGS. 7a, 7b, 7c and 7d. Size estimation of zinc-induced Aβ aggregates. […] By determining the amounts of Aβ1-40 and ^65Zn in the filtrate, the quantities retarded by the filters could be determined, and the stoichiometry of the zinc: Aβ assemblies estimated. (7d) Bar graph. […] The amounts of zinc-precipitated Aβ1-40 resolubilized in the filtrate fraction were determined by OD214, and expressed as a percentage of the amount originally retained by the respective filters. ^65Zn released into the filtrate was measured by γ-counting.
By determining the amounts of Aβ1-40 and ^65Zn in the filtrate, the quantities retarded by the filters could be determined, and the stoichiometry of the zinc: Aβ assemblies estimated. […] The amounts of zinc-precipitated Aβ1-40 resolubilized in the filtrate fraction were determined by OD214, and expressed as a percentage of the amount originally retained by the respective filters. ^65Zn released into the filtrate was measured by γ-counting.

[8] = Tinctorial amyloid formation (Congo Red, polarized light); format: physicochemical
Method: Zinc-induced tinctorial amyloid formation. […] Unbound dye was removed, the pellet washed with buffer 1 (100 mM NaCl, 20 mM Tris-HCl, pH 7.4) and mounted for microscopy.
Unbound dye was removed, the pellet washed with buffer 1 (100 mM NaCl, 20 mM Tris-HCl, pH 7.4) and mounted for microscopy.

[9] = centrifugation studies; cited from earlier work

With `[Zn+2]` [Zn^2+] the “competition of unlabeled metal ions for ^65Zn^2+ label on Aβ” value ([1]; competing metal 50 μM total, ^65Zn^2+ 157 nM) was “the only unlabeled metal ion tested that is capable of competing off the label”, the “Aβ eluting from the column” value (Aβ [2]; 25 μM total Zn^2+) was < 20% and the “lowest total concentration that decreases recoverable Aβ” value (Aβ [2]; compared with EDTA profile) was 0.4 µM. For the same molecule, the “effect on kaolin-induced Aβ precipitation relative to EDTA” value [3] was “nearly half of the amount recovered from the EDTA incubation supernatant”, the “covalent or SDS-resistant polymerization of Aβ” value (Aβ [4]) was “does not induce covalent or SDS-resistant polymerization of Aβ” and the “inhibition of tryptic Aβ hydrolysis” value (Aβ1-40; 200 μM Zn^2+) was “complete inhibition of Aβ hydrolysis”. For the same molecule, the “inhibition of tryptic activity” value (trypsin; 200 μM) was 12%, the “effect on the activity of trypsin” value (trypsin; up to 100 μM in TBS) was “negligible” and the “induction of aggregation of human Aβ1-40 by metal ions” value (metal ions 3 μM, Aβ1-40 […]) was “the only one of several metal ions tested on an equimolar basis, including Al^3+, to induce significant aggregation of human Aβ1-40”. The “effect on cognition of age-matched control subjects” value [5] was “remained unaffected by the dose”, the reversibility of changes [5] was “rapidly reversible following cessation of the four day supplementation” and the “time to acute decline in cognition” value [5] was “forty-eight”. For the same molecule, the “drop in Mini-Mental State Examination scores” value ([5]; po) was 31%.
In the case of “insulin: peptide whose zinc binding properties are well characterized”, the “stoichiometric ratio Zn^2+:insulin at which the peptide precipitates” value [6] is given as > 0.33.
For “6-40: 3.6 kDa tryptic digestion product of Aβ1-40”, the “zinc binding (in words)” value [1] was “binds zinc”.
For Aβ1-28: Aβ fragment, residues 1-28, the “^65Zn^2+ binding compared with Aβ1-40” value ([1]; ^65Zn^2+ 74 nM, FIG. 1c) was 30 % of Bmax.
For “rat Aβ1-40: rat/mouse species of Aβ1-40; Arg→Gly, Tyr→Phe and His→Arg at positions 5, 10 and 13 (DAEFGHDSGFEVRHQKLVFFAEDVGSNKGAIIGLMVGGVV; Amyloid-beta protein 40; UniProt P08592 672-711, looked up)”, the “increase of >0.1μ particles following incubation with Zn^2+” value ([7]; Zn^2+ 25 μM versus EDTA) was 20%, the “increase of >0.22μ particles following incubation with Zn^2+” value ([7]; Zn^2+ 25 μM versus EDTA) was 30% and the “proportion as >0.65μ particles” value ([7]; Zn^2+ 25 μM, peptide […]) was “increased only slightly”. The “Zn^2+ concentration that induces amyloid by tinctorial criteria” value [8] was ≥ 10 µM, the “Congo Red-stained material after incubation with EDTA” value ([8]; EDTA 50 μM instead of Zn^2+) was “In neither case was Congo Red-stained material detected” and the “tinctorial amyloid formation (in words)” value ([8]; Zn^2+ 25 μM, 30 min, 37° C.) was “significantly fewer and smaller particles, with minimal birefringence”. For the same molecule, the “peptide aggregated into >0.2μ particles” value (EDTA, higher peptide concentrations) was “≈ 15%”, the “peptide aggregated into >0.2μ particles” value (EDTA, peptide 0.8 μM) was “no detectable aggregation” and the “peptide aggregated into >0.2μ particles” value (Zn^2+ 25 μM, peptide 0.8 μM) was “no aggregation”. The “peptide aggregated into >0.2μ particles” value (Zn^2+ 25 μM, peptide 4 μM) was 25%.
With “25-35: Aβ fragment covering a region of the carboxyl terminus, residues 25-35 (GSNKGAIIGLM; Amyloid-beta protein 40; UniProt P05067 696-706, looked up, fragment)” the “zinc binding (in words)” value [1] was “unable to bind zinc”.
In the case of `NC(CO)(CO)CO` [Tris], the “abolition of ^65Zn^2+ binding to Aβ” value ([1]; 150 mM Tris) is reported as “≈ 50%” and the “abolition of ^65Zn^2+ binding to Aβ” value ([1]; 500 mM Tris) is reported as “≈ 95%”.
With `[Al+3]` [Al^3+] the “effect on Aβ recoverable by chromatography (in words)” value (Aβ [2]) was “partial effects on Aβ solubility comparable with 3 μM total Zn^2+”.
With “gln11: Aβ1-28 where residue 11 is glutamine (DAEFRHDSGYQVHHQKLVFFAEDVGSNK; Amyloid-beta protein 40; UniProt P05067 672-699, looked up, variant E11Q)” the “zinc binding (in words)” value [1] was “does not interfere with ^65Zn^2+ binding”.
With `[Ba+2]` [Ba^2+] the “less total peptide eluted compared with EDTA profile” value (Aβ [2]) was 40%.
For “^125I-Aβ1-40: human Aβ1-40 tracer iodinated on the tyrosine residue at position 10”, the “Zn^2+ concentration required to precipitate the peptide” value [9] is listed as 1 mM.
In the case of `[Ca+2]` [Ca^2+], the “less total peptide eluted compared with EDTA profile” value (Aβ [2]) is reported as 40%.
In the case of `[Ag+2]` [Ag^2+], the “less total peptide eluted compared with EDTA profile” value (Aβ [2]) is reported as 40%.
For `[Mg+2]` [Mg^2+], the “less total peptide eluted compared with EDTA profile” value (Aβ [2]) was 40%.
For `[Pb+2]` [Pb^2+], the “effect on Aβ recoverable by chromatography (in words)” value (Aβ [2]) was “most strongly promotes the elution of the monomeric peptide, abolishing high order polymers”.
For `[Cu+2]` [Cu^2+], the Aβ dimerization (Aβ [2]; 25 μM total) was “dramatic increase in Aβ dimerization”.
With “17-40: 2.1 kDa tryptic digestion product of Aβ1-40, post-secretase carboxyl-terminal product (LVFFAEDVGSNKGAIIGLMVGGVV; Amyloid-beta protein 40; UniProt P05067 688-711, looked up, fragment) [reference compound]” the “zinc binding (in words)” value [1] was “does not bind zinc” and the “effect of zinc on the rate of tryptic digestion of the peptide” value (Aβ1-40; increasing zinc concentrations) was “not inhibited by increasing zinc concentrations”.
